Assays:
[1] = test system: UACC893; experiment: Cell growth inhibition assay; type: cell-based; settings: Homo sapiens, UACC-893, UACC893, breast, HER2+, PIK3CA H1047R; single agent; read-out: IC50 Single Agent (mean +/- std)
Protocol: (§1) Human breast tumor lines. BT-474, HCC1419, HCC1937, HCC1954, HCC202, KPL-1, MDA-MB-157, MDA-MB-175-VII, MDA-MB-361, MDA-MB-453, SK-BR-3, SUM225PE, UACC893, and ZR-75-1; lung tumor line, CALU-3; and melanoma line, CHL-1, were from ATCC. Human breast tumor line JIMT-1 was from European Collection of Cell Cultures (UK). Human breast tumor lines SUM149PT, SUM190PT and SUM52PE were from Asterand. These lines were cultured in RPMI 1640 medium containing 10% fetal bovine serum (FBS). A head and neck tumor line, LICR LON HN5 (HN5), a gift from the Institute of Cancer Research, Surrey, U.K, was cultured in Dulbecco's modified Eagle medium (DMEM) containing 5% FBS; KPL-4 breast tumor cell line was kindly provided by Dr Junichi Kurebayashi (Kawasaki Medical School, Okayama, Japan) and cultured in DMEM containing 5% FBS. JIMT-1 is a line derived from a patient clinically resistant to trastuzumab (Herceptin®). BT-474-J4 is a single cell clone derived from a pool of BT-474 cells that were selected to grow in lapatinib to a concentration of 3 μM.
(§2) All cells were cultured for a minimum of 72 hours prior to cell plating. Cells were assayed in a 96-well tissue culture plate (NUNC 136102) of RPMI medium containing 10% FBS for all cells at 2,000 cells per well except KPL-4 and HN5 which were plated in DMEM containing 5% FBS at 500 cells per well. Approximately 24 hours after plating, cells were exposed to ten, two-fold or three-fold serial dilutions of compound or the combination of the two agents at a constant molar to molar ratio of 1:1 Compound A to Compound B in RPMI media containing 10% FBS or DMEM containing 5% FBS. Cells were incubated in the presence of compounds for 3 days. ATP levels were determined by adding Cell Titer Glo® (Promega) according to the manufacturer's protocol. Briefly, Cell Titer Glo® was added each plate, incubated for 20 minutes then luminescent signal was read on the SpectraMax L plate reader with a 0.5 sec integration time.
(§3) Inhibition of cell growth was estimated after treatment with compound or combination of compounds for three days and comparing the signal to cells treated with vehicle (DMSO). Cell growth was calculated relative to vehicle (DMSO) treated control wells. Concentration of compound that inhibits 50% of control cell growth (IC50) was interpolated using nonlinear regression with the equation, y=(A+(B−A)/(1+(C/x)̂D))), where A is the minimum response (ymin), B is the maximum response (ymax), C is the inflection point of the curve (EC50) and D is the Hill coefficient. […]

[2] = test system: Calu6; experiment: Cell line proliferation study; type: cell-based, human; settings: Calu6, lung; for IC50: Homo sapiens, Calu-6, 72 hours, read-out: gIC50
Protocol: (§4) In a separate study, combination drug tests with Compounds A and B were conducted using a panel of cell lines from human colon cancers (n=26), lung cancers (n=15) and pancreatic cancers (n=6). Cell lines were obtained from commercial vendors (ATCC and DSMZ). Cell lines were grown in RPMI-1640 supplemented with 2 mM glutamine, 1 mM sodium pyruvate and 10% fetal bovine serum (except for Capan-1 and HuP-T4 which were grown with 20% fetal bovine serum) and maintained at 37° C. and 5% CO2 in a humid incubator. Assays were performed in 384 well microtiter plates with optimum seeding densities for each cell line.
(§5) The test compounds were prepared as 10 mM stocks in 100% DMSO. Further dilutions of the compounds were made in DMSO. Compound A was diluted horizontally in a separate 96 well microtiter plate in rows D-G using a 3-fold dilution series for 10 dilution points. Compound B was similarly diluted horizontally in a 96 well microtiter plate in rows B-E using a 3-fold dilution series for 10 dilution points.
(§6) The two compounds were combined using equal volumes from each drug plate into cell culture media. […] Both Compound A and Compound B were individually titrated in rows B and C (for Compound B) and rows F and G (for Compound A) of the merged drug plate.
(§7) A 1:10 dilution of the drugs was performed in cell culture media prior to addition to the cells.
(§8) The final concentration range for the test compounds was 250 to 0.013 nM for Compound A and 1000 to […] for Compound B. The positive control consisted of culture media with DMSO at 0.1% and cells. The negative control consisted of culture media with DMSO at 0.1%. The cell lines were incubated at 37° C., 5% CO2 in humid air for 72 hours. Cell proliferation was measured using the CellTiter Glo (Promega) reagent according to the manufacturer's protocol. The plates are treated with CellTiter Glo solution and are analyzed for RLU (relative light units) using a Molecular Devices SpectraMax M5 plate reader.
(§9) The percent intensity values were used in model 205 of XLfit (IDBS, Inc.) in Microsoft Excel to calculate gIC50 values using a 4 parameter logistical fit. The midpoint of the growth window (the gIC50) falls half way between the number of cells at the time of compound addition (T=0) and the growth of control cells treated with DMSO at 72 hrs. The number of cells at time zero (T0) is divided from the intensity value at the bottom of the response curve (Ymin) to generate a measure for cell death (Ymin/T0). A value below 1 for Ymin/T0 indicates stronger potency to induce cell death with the treatment when compared to higher values. […]

[3] = test system: Colo205; experiment: Cell line proliferation study; type: cell-based, human; settings: Colo205, colon; for IC50: Homo sapiens, COLO 205, 72 hours, read-out: gIC50
Protocol: as §4, §5, §6, §7, §8, §9

[4] = test system: RKO; experiment: Cell line proliferation study; type: cell-based, human; settings: colon; for IC50: Homo sapiens, 72 hours, read-out: gIC50
Protocol: as §4, §5, §6, §7, §8, §9

[5] = test system: SKMES1; experiment: Cell line proliferation study; type: cell-based, human; settings: SKMES1, lung; for IC50: Homo sapiens, SK-MES-1, 72 hours, read-out: gIC50
Protocol: as §4, §5, §6, §7, §8, §9

[6] = test system: CHL-1; experiment: Cell growth inhibition assay; type: cell-based; settings: Homo sapiens, CHL-1, CHL-1, melanoma, WT; single agent; read-out: IC50 Single Agent (mean +/- std)
Protocol: as §1, §2, §3

[7] = test system: Calu-3; experiment: Cell growth inhibition assay; type: cell-based; settings: Homo sapiens, Calu-3, Calu-3, lung, HER2+, WT; single agent; read-out: IC50 Single Agent (mean +/- std)
Protocol: as §1, §2, §3

[8] = test system: HN5; experiment: Cell growth inhibition assay; type: cell-based; settings: Homo sapiens, HN5, HN5, H&N, EGFR+, WT; single agent; read-out: IC50 Single Agent (mean +/- std)
Protocol: as §1, §2, §3

[9] = test system: SUM149PT; experiment: Cell growth inhibition assay; type: cell-based; settings: Homo sapiens, breast, PTEN low, single agent, read-out: IC50 Single Agent (mean +/- std)
Protocol: as §1, §2, §3

IC50 [2] [nM]	IC50 [3] [nM]	IC50 [5] [nM]	IC50 [7] [nM]	SMILES	IC50 [1] [nM]	Ymin/T0 [2]	Ymin/T0 [3]	IC50 [4] [nM]	Ymin/T0 [4]	Ymin/T0 [5]	IC50 [6] [nM]	IC50 [8] [nM]	IC50 [9] [nM]
53.1	0.77	80.4		CC(=O)Nc1cccc(-n2c(=O)n(C3CC3)c(=O)c3c(Nc4ccc(I)cc4F)n(C)c(=O)c(C)c32)c1 [Compound A, N-{3-[3-cyclopropyl-5-(2-fluoro-4-iodo-phenylamino)-6,8-dimethyl-2,4,7-trioxo-3,4,6,7-tetrahydro-2H-pyrido[4,3-d]pyrimidin-1-yl]phenyl}acetamide]	> 1000	15.0	−1.30	77.8	24.44	19.5			
> 1000	> 1000	> 1000	> 1000	Cn1ncc(Cl)c1-c1cc(C(=O)N[C@H](CN)Cc2ccc(F)c(F)c2)oc1Cl [Compound B, N-{(1S)-2-amino-1-[(3,4-difluorophenyl)methyl]ethyl}-5-chloro-4-(4-chloro-1-methyl-1H-pyrazol-5-yl)-2-furancarboxamide]		56.3	14.87	> 1000	17.13	49.6	> 1000	> 1000	> 1000

Source: patent publication US20150094321A1, “COMBINATION” (GlaxoSmithKline LLC, priority 2009, published 2015)
